Assay results published in article PMC5931096, “A Phase I study of the novel immunomodulatory agent PG545 (pixatimod) in subjects with advanced solid tumours” (British Journal of Cancer, 2018).
Entries after “also recorded” stand apart in the source; their conditions may differ. Where two headings read alike, the source gives them in different places.

Tests used:
[1] = system: tumour-associated macrophages (TAM); design: method as in PMID 24970482, PMID 23696215; conditions: preclinical cancer models; cited from earlier work
[2] = system: plasma IFNγ, TNFα, IP-10 and MCP-1; experiment: Plasma cytokine/chemokine biomarkers (ELISA, array kits); type: in vivo, human
Protocol: Plasma and peripheral blood mononuclear cell (PBMC) samples were obtained at various points for PD assessment with the exception of the 25 mg cohort, where PBMC were not collected. Plasma samples were analysed for the concentration of various markers, including cytokines, chemokines and heparanase using commercial ELISA (LifeSpan Biosciences, Seattle, WA), and array kits (Quansys, Logan, UT).

heparanase = conditions: cited from earlier work
[3] = Plasma pharmacokinetics (LC-MS/MS, population PK model and NCA); type: in vivo, human; conditions: for AUC / Cmax / AUC(0-t) / half-life: human, plasma, intravenous
Protocol: Plasma samples were obtained for the first (day 1) and fourth (day 22) doses, as follows: (1) pre-dosing (no more than 4 h prior to infusion start); (2) mid-point of infusion; prior to completion of infusion; 30 min post-infusion; then 2, 4, 6, 24, 48, 72, 144 and 168 h post-infusion. Samples were analysed for PG545 concentration using a validated liquid chromatography with tandem mass spectrometry (LC-MS/MS) assay.[13] A population PK model was developed using NONMEM® and individual non-compartmental analysis-type exposure parameter estimation was also performed.

[4] = 100 mg, dose number 1, NCA mean
[5] = 100 mg, dose number 4, NCA mean
[6] = 150 mg, dose number 1, NCA mean
[7] = 150 mg, dose number 4, NCA mean

SMILES: CC(C)CCC[C@@H](C)[C@H]1CC[C@H]2[C@@H]3CC[C@H]4C[C@@H](O[C@@H]5O[C@H](COS(=O)(=O)O)[C@@H](O[C@H]6O[C@H](COS(=O)(=O)O)[C@@H](O[C@H]7O[C@H](COS(=O)(=O)O)[C@@H](O[C@H]8O[C@H](COS(=O)(=O)O)[C@@H](OS(=O)(=O)O)[C@H](OS(=O)(=O)O)[C@H]8OS(=O)(=O)O)[C@H](OS(=O)(=O)O)[C@H]7OS(=O)(=O)O)[C@H](OS(=O)(=O)O)[C@H]6OS(=O)(=O)O)[C@H](OS(=O)(=O)O)[C@H]5OS(=O)(=O)O)CC[C@]4(C)[C@H]3CC[C@]12C [PG545]
- Inhibition of tumour-associated macrophages (TAM) [1]: potently inhibit
- Increases in TNFα, IL-6 and IL-8 responses ([2]; 150 mg vs 100 mg cohort averages): strikingly higher at 150 mg
- Increase in plasma IFNγ, TNFα, IP-10 (CXCL10) and MCP-1 (CCL2) ([2]; after initial dose): up to 25 fold
- Anti-heparanase activity (heparanase): strong anti-heparanase activity
- Exposure (AUC0–168 and Cmax) relative to dose ([3]; 150 mg dose level): sub-proportional
- Dose proportionality of exposure ([3]; 25-150 mg): proportional up to 100 mg; also recorded: general dose-proportionate exposure up to 100 mg
- AUC ([3]; 25 mg, dose number 1, NCA mean): 432 µg·h/mL
- Cmax ([3]; 25 mg, dose number 1, NCA mean): 9600 ng/mL
- AUC(0-t) ([3]; 25 mg, dose number 1, NCA mean, read-out: AUC0-96): 339 µg·h/mL
- AUC(0-t) ([3]; 25 mg, dose number 1, NCA mean, read-out: AUC0-last): 465 µg·h/mL
- half-life ([3]; 25 mg, dose number 1, NCA mean, read-out: t1/2 (converted)): 149 h
- AUC ([3]; 25 mg, dose number 4, NCA mean): 841 µg·h/mL
- Cmax ([3]; 25 mg, dose number 4, NCA mean): 12400 ng/mL
- AUC(0-t) ([3]; 25 mg, dose number 4, NCA mean, read-out: AUC0-96): 589 µg·h/mL
- AUC(0-t) ([3]; 25 mg, dose number 4, NCA mean, read-out: AUC0-last): 611 µg·h/mL
- half-life ([3]; 25 mg, dose number 4, NCA mean, read-out: t1/2 (converted)): 123 h
- AUC ([3]; 50 mg, dose number 1, NCA mean): 695 µg·h/mL
- Cmax ([3]; 50 mg, dose number 1, NCA mean): 15600 ng/mL
- AUC(0-t) ([3]; 50 mg, dose number 1, NCA mean, read-out: AUC0-96): 539 µg·h/mL
- AUC(0-t) ([3]; 50 mg, dose number 1, NCA mean, read-out: AUC0-last): 710 µg·h/mL
- half-life ([3]; 50 mg, dose number 1, NCA mean, read-out: t1/2 (converted)): 183 h
- AUC ([3]; 50 mg, dose number 4, NCA mean): 1640 µg·h/mL
- Cmax ([3]; 50 mg, dose number 4, NCA mean): 21700 ng/mL
- AUC(0-t) ([3]; 50 mg, dose number 4, NCA mean, read-out: AUC0-96): 1120 µg·h/mL
- AUC(0-t) ([3]; 50 mg, dose number 4, NCA mean, read-out: AUC0-last): 1690 µg·h/mL
- half-life ([3]; 50 mg, dose number 4, NCA mean, read-out: t1/2 (converted)): 228 h
- AUC [3, 4]: 1210 µg·h/mL
- Cmax [3, 4]: 29500 ng/mL
- AUC(0-t) ([3]; 100 mg, dose number 1, NCA mean, read-out: AUC0-96): 974 µg·h/mL
- AUC(0-t) ([3]; 100 mg, dose number 1, NCA mean, read-out: AUC0-last): 1210 µg·h/mL
- half-life ([3]; 100 mg, dose number 1, NCA mean, read-out: t1/2 (converted)): 133 h
- AUC [3, 5]: 2250 µg·h/mL
- Cmax [3, 5]: 35600 ng/mL
- AUC(0-t) ([3]; 100 mg, dose number 4, NCA mean, read-out: AUC0-96): 1610 µg·h/mL
- AUC(0-t) ([3]; 100 mg, dose number 4, NCA mean, read-out: AUC0-last): 2380 µg·h/mL
- half-life ([3]; 100 mg, dose number 4, NCA mean, read-out: t1/2 (converted)): 133 h
- AUC [3, 6]: 1500 µg·h/mL
- Cmax [3, 6]: 37100 ng/mL
- AUC(0-t) ([3]; 150 mg, dose number 1, NCA mean, read-out: AUC0-96): 1190 µg·h/mL
- AUC(0-t) ([3]; 150 mg, dose number 1, NCA mean, read-out: AUC0-last): 1440 µg·h/mL
- half-life ([3]; 150 mg, dose number 1, NCA mean, read-out: t1/2 (converted)): 117 h
- AUC [3, 7]: 3190 µg·h/mL
- Cmax [3, 7]: 48600 ng/mL
- AUC(0-t) ([3]; 150 mg, dose number 4, NCA mean, read-out: AUC0-96): 2230 µg·h/mL
- AUC(0-t) ([3]; 150 mg, dose number 4, NCA mean, read-out: AUC0-last): 2780 µg·h/mL
- half-life ([3]; 150 mg, dose number 4, NCA mean, read-out: t1/2 (converted)): 128 h
- half-life ([3]; across all subjects, population PK model, read-out: Mean t1/2 (converted)): 141 h
- Between subject variability of CL ([3]; population PK model): 75.6 % CV
- Between subject variability of Vp ([3]; population PK model): 61.2 % CV
- Apparent central volume (Vc) ([3]; population PK model, IV): 2.98 L
- Apparent clearance (CL) ([3]; population PK model, IV): 0.0165 L/h
- Apparent peripheral volume (Vp) ([3]; population PK model, IV): 11.9 L
